Experimental data as given in patent publication US7572252B1 (priority 1995, dated 2009).

Test: Transdermal electrotransport goserelin delivery at two constant current densities (Example 4)
Format: in vivo, human
Method: This study was undertaken to evaluate the relationship between current density and drug flux in the transdermal electrotransport delivery of goserelin. The study involved the application of electrotransport devices, applying constant current, to 12 normal male volunteers for a duration of 8 hours.
The two electrotransport treatment regimens in this study differed only in applied current density levels. The electrotransport devices delivered goserelin through the skin from polyvinyl alcohol (PVOH)-based donor hydrogels having a skin-contact surface area of 4 cm^2. The gels contained an aqueous goserelin solution. The current density levels used in this study were 50 and 100 μA/cm^2. After an 8 hour treatment period, the electrotransport devices were removed. The skin site was then washed to remove any residual goserelin. All 12 volunteers received each treatment seven days apart.
For each treatment, seven blood samples were taken over a 24 hour period commencing with the application of current from the electrotransport devices. Serum goserelin concentrations from each patient were used to calculate mean drug flux and the mean total amount of drug delivered.

CC(C)C[C@H](NC(=O)[C@@H](COC(C)(C)C)NC(=O)[C@H](Cc1ccc(O)cc1)NC(=O)[C@H](CO)NC(=O)[C@H](Cc1c[nH]c2ccccc12)NC(=O)[C@H](Cc1cnc[nH]1)NC(=O)[C@@H]1CCC(=O)N1)C(=O)N[C@@H](CCCNC(=N)N)C(=O)N1CCC[C@H]1C(=O)NNC(N)=O [goserelin]
average transdermal goserelin flux (50 microA/cm^2 constant current, 4 cm^2, 8 h): 5.8 microgram per hour
average transdermal flux of goserelin (100 microA/cm^2 constant current, 4 cm^2, 8 h): 21.6 µg/h
increase in drug flux (current density rises from 50 to 100 μA/cm^2): almost four-fold increase
